ChEMBL document CHEMBL3112491, “3-(5-)-Amino-o-diarylisoxazoles: regioselective synthesis and antitubulin activity” (2014)

Columns and labels:
Format in all cases: functional
IGROV-1 = assay: Growth inhibition of human IGROV1 cells after 48 hrs by sulforhodamine B assay; conditions: IGROV-1, 48 h
MDA-MB-435 = assay: Growth inhibition of human MDA-MB-435 cells after 48 hrs by sulforhodamine B assay; conditions: MDA-MB-435, 48 h
SK-MEL-28 = assay: Growth inhibition of human SK-MEL-28 cells after 48 hrs by sulforhodamine B assay; conditions: SK-MEL-28, 48 h
SK-OV-3 = assay: Growth inhibition of human SKOV3 cells after 48 hrs by sulforhodamine B assay; conditions: SK-OV-3, 48 h
[1] = Growth inhibition of human UO31 cells after 48 hrs by sulforhodamine B assay; conditions: UO-31, 48 h
MDA-MB-468 = assay: Growth inhibition of human MDA-MB-468 cells after 48 hrs by sulforhodamine B assay; conditions: MDA-MB-468, 48 h
OVCAR-8 = assay: Growth inhibition of human OVCAR8 cells after 48 hrs by sulforhodamine B assay; conditions: OVCAR-8, 48 h
OVCAR-3 = assay: Growth inhibition of human OVCAR3 cells after 48 hrs by sulforhodamine B assay; conditions: OVCAR-3, 48 h
[2] = Growth inhibition of human HCC2998 cells after 48 hrs by sulforhodamine B assay; conditions: HCC 2998, 48 h
SNB-19 = assay: Growth inhibition of human SNB19 cells after 48 hrs by sulforhodamine B assay; conditions: SNB-19, 48 h
HCT-15 = assay: Growth inhibition of human HCT15 cells after 48 hrs by sulforhodamine B assay; conditions: HCT-15, 48 h
Paracentrotus lividus [3] = assay: Microtubule destabilizing activity in sea urchin free-swimming blastula assessed as embryo spinning treated at 9 to 10 hrs post-fertilization measured after 0.15 to 15 hrs
SR = assay: Growth inhibition of human SR cells after 48 hrs by sulforhodamine B assay
[4] = Growth inhibition of human SF539 cells after 48 hrs by sulforhodamine B assay; conditions: SF-539, 48 h
SK-MEL-5 = assay: Growth inhibition of human SK-MEL-5 cells after 48 hrs by sulforhodamine B assay; conditions: SK-MEL-5, 48 h
[5] = Growth inhibition of human RXF393 cells after 48 hrs by sulforhodamine B assay; conditions: RXF 393, 48 h
Paracentrotus lividus [6] = assay: Antimitotic activity in sea urchin fertilized egg assessed as cleavage arrest treated at 8 to 20 mins post-fertilization measured at 2.5 to 5.5 hrs post-fertilization
786-0 = assay: Growth inhibition of human 786-0 cells after 48 hrs by sulforhodamine B assay; conditions: 786-0, 48 h
K562 = assay: Growth inhibition of human K562 cells after 48 hrs by sulforhodamine B assay; conditions: K562, 48 h
[7] = Growth inhibition of human EKVX cells after 48 hrs by sulforhodamine B assay
NCI-H522 = assay: Growth inhibition of human NCI-H522 cells after 48 hrs by sulforhodamine B assay; conditions: NCI-H522, 48 h
MDA-MB-231 = assay: Growth inhibition of human MDA-MB-231 cells after 48 hrs by sulforhodamine B assay; conditions: MDA-MB-231, 48 h
DU-145 = assay: Growth inhibition of human DU145 cells after 48 hrs by sulforhodamine B assay; conditions: DU-145, 48 h
CCRF-CEM = assay: Growth inhibition of human CCRF-CEM cells after 48 hrs by sulforhodamine B assay
HT-29 = assay: Growth inhibition of human HT-29 cells after 48 hrs by sulforhodamine B assay; conditions: HT-29, 48 h
SW-620 = assay: Growth inhibition of human SW620 cells after 48 hrs by sulforhodamine B assay; conditions: SW-620, 48 h
PC-3 = assay: Growth inhibition of human PC3 cells after 48 hrs by sulforhodamine B assay; conditions: PC-3, 48 h
MCF7 = assay: Growth inhibition of human MCF7 cells after 48 hrs by sulforhodamine B assay; conditions: MCF7, 48 h
A498 = assay: Growth inhibition of human A498 cells after 48 hrs by sulforhodamine B assay; conditions: A498, 48 h
SF-268 = assay: Growth inhibition of human SF268 cells after 48 hrs by sulforhodamine B assay; conditions: SF-268, 48 h
SF-295 = assay: Growth inhibition of human SF295 cells after 48 hrs by sulforhodamine B assay; conditions: SF-295, 48 h
HOP-62 = assay: Growth inhibition of human HOP62 cells after 48 hrs by sulforhodamine B assay; conditions: HOP-62, 48 h
[8] = Growth inhibition of human Hs 578T cells after 48 hrs by sulforhodamine B assay
NCI-H460 = assay: Growth inhibition of human NCI-H460 cells after 48 hrs by sulforhodamine B assay; conditions: NCI-H460, 48 h
UACC-62 = assay: Growth inhibition of human UACC62 cells after 48 hrs by sulforhodamine B assay; conditions: UACC-62, 48 h
BT-549 = assay: Growth inhibition of human BT549 cells after 48 hrs by sulforhodamine B assay; conditions: BT-549, 48 h
LOX IMVI = assay: Growth inhibition of human LOXIMVI cells after 48 hrs by sulforhodamine B assay
SN12C = assay: Growth inhibition of human SN12C cells after 48 hrs by sulforhodamine B assay
U-251 = assay: Growth inhibition of human U251 cells after 48 hrs by sulforhodamine B assay; conditions: U-251, 48 h
T47D = assay: Growth inhibition of human T47D cells after 48 hrs by sulforhodamine B assay
Paracentrotus lividus [9] = assay: Antimitotic activity in sea urchin fertilized egg assessed as cleavage alteration treated at 8 to 20 mins post-fertilization measured at 2.5 to 5.5 hrs post-fertilization
RPMI-8226 = assay: Growth inhibition of human RPMI8226 cells after 48 hrs by sulforhodamine B assay; conditions: RPMI-8226, 48 h
HL-60(TB) = assay: Growth inhibition of human HL-60(TB) cells after 48 hrs by sulforhodamine B assay; conditions: HL-60, 48 h
SNB-75 = assay: Growth inhibition of human SNB75 cells after 48 hrs by sulforhodamine B assay; conditions: SNB-75, 48 h
HCT-116 = assay: Growth inhibition of human HCT116 cells after 48 hrs by sulforhodamine B assay; conditions: HCT-116, 48 h
NCI-H23 = assay: Growth inhibition of human NCI-H23 cells after 48 hrs by sulforhodamine B assay; conditions: NCI-H23, 48 h
SK-MEL-2 = assay: Growth inhibition of human SK-MEL-2 cells after 48 hrs by sulforhodamine B assay; conditions: SK-MEL-2, 48 h
[10] = Growth inhibition of human NCI-ADR-RES cells after 48 hrs by sulforhodamine B assay
KM12 = assay: Growth inhibition of human KM12 cells after 48 hrs by sulforhodamine B assay; conditions: KM12, 48 h
M14 = assay: Growth inhibition of human M14 cells after 48 hrs by sulforhodamine B assay; conditions: M14, 48 h
[11] = Growth inhibition of human OVCAR4 cells after 48 hrs by sulforhodamine B assay; conditions: OVCAR-4, 48 h
COLO 205 = assay: Growth inhibition of human COLO205 cells after 48 hrs by sulforhodamine B assay; conditions: COLO 205, 48 h
MOLT-4 = assay: Growth inhibition of human MOLT4 cells after 48 hrs by sulforhodamine B assay; conditions: MOLT-4, 48 h
A549 = assay: Growth inhibition of human A549/ATCC cells after 48 hrs by sulforhodamine B assay; conditions: A549, 48 h
NCI-H226 = assay: Growth inhibition of human NCI-H226 cells after 48 hrs by sulforhodamine B assay; conditions: NCI-H226, 48 h

COc1ccc(-c2c(-c3cc(OC)c4c(c3)OCO4)noc2N)cc1
GI50 (IGROV-1): 99.7 nM
GI50 (MDA-MB-435): < 10 nM
GI50 (SK-MEL-28): 13.6 nM
GI50 (SK-OV-3): 31.8 nM
GI50 [1]: 82.2 nM
GI50 (MDA-MB-468): 18.7 nM
GI50 (OVCAR-8): 58.5 nM
GI50 (OVCAR-3): 21.9 nM
GI50 [2]: 118 nM
GI50 (SNB-19): 65.8 nM
GI50 (HCT-15): 48.2 nM
EC (Paracentrotus lividus [3]): 0.05 µM
GI50 (SR): < 10 nM
GI50 [4]: 38.1 nM
GI50 (SK-MEL-5): 29.8 nM
GI50 [5]: 22.3 nM
EC (Paracentrotus lividus [6]): 0.002 µM
GI50 (786-0): 73.5 nM
GI50 (K562): 19.3 nM
GI50 [7]: 10.7 µM
GI50 (NCI-H522): < 10 nM
GI50 (MDA-MB-231): 124 nM
GI50 (DU-145): 47.2 nM
GI50 (CCRF-CEM): 36.3 nM
GI50 (HT-29): 34.6 nM
GI50 (SW-620): 29.4 nM
GI50 (PC-3): 44 nM
GI50 (MCF7): 31.5 nM
GI50 (A498): 22 nM
GI50 (SF-268): 148 nM
GI50 (SF-295): 22.8 nM
GI50 (HOP-62): 30.2 nM
GI50 [8]: 32.4 nM
GI50 (NCI-H460): 35.2 nM
GI50 (UACC-62): 59.7 nM
GI50 (BT-549): 3.92 µM
GI50 (LOX IMVI): 57.9 nM
GI50 (SN12C): 217 nM
GI50 (U-251): 30.8 nM
GI50 (T47D): 39.4 nM
EC (Paracentrotus lividus [9]): 0.0005 µM
GI50 (RPMI-8226): 49.9 nM
GI50 (HL-60(TB)): 35.1 nM
GI50 (SNB-75): 33.9 nM
GI50 (HCT-116): 46.3 nM
GI50 (NCI-H23): 37.8 nM
GI50 (SK-MEL-2): 25.9 nM
GI50 [10]: 19.1 nM
GI50 (KM12): 18.1 nM
GI50 (M14): 32.3 nM
GI50 [11]: 114 nM
GI50 (COLO 205): 34.1 nM
GI50 (MOLT-4): 71.4 nM
GI50 (A549): 59.6 nM
GI50 (NCI-H226): 121 nM
